Source: ChEMBL document CHEMBL3045777, “Response of selected horseweed (Conyza canadensis (L.) Cronq.) populations to glyphosate” (2004)

Assays:
Erigeron canadensis [1] = experiment: Herbicidal activity against compound-sensitive Conyza canadensis (horseweed) under greenhouse condition assessed as fresh weight at 0.45 kg ae/ha measured 21 days post treatment relative to untreated control
Erigeron canadensis [2] = experiment: Herbicidal activity against Conyza canadensis (horseweed) under greenhouse condition at 0.05 kg ae/ha measured 21 days post treatment relative to control; format: functional
Erigeron canadensis [3] = experiment: Herbicidal activity against compound-resistant Conyza canadensis (horseweed) isolate 1 under greenhouse condition at 2.52 kg ae/ha measured 14 days post treatment relative to control; format: functional
Erigeron canadensis [4] = experiment: Herbicidal activity against compound-sensitive Conyza canadensis (horseweed) under greenhouse condition at 1.68 kg ae/ha measured 7 days post treatment relative to control; format: functional
Erigeron canadensis [5] = experiment: Herbicidal activity against compound-sensitive Conyza canadensis (horseweed) under greenhouse condition at 3.36 kg ae/ha measured 21 days post treatment relative to control; format: functional
Erigeron canadensis [6] = experiment: Herbicidal activity against compound-resistant Conyza canadensis (horseweed) isolate 2 under greenhouse condition at 1.25 kg ae/ha measured 21 days post treatment relative to control; format: functional
Erigeron canadensis [7] = experiment: Herbicidal activity against compound-resistant Conyza canadensis (horseweed) isolate 2 under greenhouse condition at 9 kg ae/ha measured 14 days post treatment relative to control; format: functional
Erigeron canadensis [8] = experiment: Herbicidal activity against compound-resistant Conyza canadensis (horseweed) isolate 2 under greenhouse condition at 1.68 kg ae/ha measured 14 days post treatment relative to control; format: functional
Erigeron canadensis [9] = experiment: Herbicidal activity against compound-sensitive Conyza canadensis (horseweed) under greenhouse condition at 1.25 kg ae/ha measured 7 days post treatment relative to control; format: functional
Erigeron canadensis [10] = experiment: Herbicidal activity against compound-sensitive Conyza canadensis (horseweed) under greenhouse condition assessed as fresh weight at 0.84 kg ae/ha measured 21 days post treatment relative to untreated control
Erigeron canadensis [11] = experiment: Herbicidal activity against compound-sensitive Conyza canadensis (horseweed) under greenhouse condition assessed as fresh weight at 9 kg ae/ha measured 21 days post treatment relative to untreated control
Erigeron canadensis [12] = experiment: Herbicidal activity against compound-resistant Conyza canadensis (horseweed) isolate 2 under greenhouse condition at 0.45 kg ae/ha measured 7 days post treatment relative to control; format: functional
Erigeron canadensis [13] = experiment: Herbicidal activity against compound-resistant Conyza canadensis (horseweed) isolate 1 under greenhouse condition at 1.25 kg ae/ha measured 21 days post treatment relative to control; format: functional
Erigeron canadensis [14] = experiment: Herbicidal activity against compound-resistant Conyza canadensis (horseweed) isolate 1 under greenhouse condition at 0.84 kg ae/ha measured 7 days post treatment relative to control; format: functional
Erigeron canadensis [15] = experiment: Herbicidal activity against compound-sensitive Conyza canadensis (horseweed) under greenhouse condition at 1.25 kg ae/ha measured 14 days post treatment relative to control; format: functional
Erigeron canadensis [16] = experiment: Herbicidal activity against compound-sensitive Conyza canadensis (horseweed) under greenhouse condition at 0.84 kg ae/ha measured 14 days post treatment relative to control; format: functional
Erigeron canadensis [17] = experiment: Herbicidal activity against compound-resistant Conyza canadensis (horseweed) isolate 1 under greenhouse condition at 1.25 kg ae/ha measured 14 days post treatment relative to control; format: functional
Erigeron canadensis [18] = experiment: Herbicidal activity against compound-sensitive Conyza canadensis (horseweed) under greenhouse condition at 9 kg ae/ha measured 7 days post treatment relative to control; format: functional
Erigeron canadensis [19] = experiment: Herbicidal activity against compound-sensitive Conyza canadensis (horseweed) under greenhouse condition at 0.84 kg ae/ha measured 21 days post treatment relative to control; format: functional
Erigeron canadensis [20] = experiment: Herbicidal activity against Conyza canadensis (horseweed) under greenhouse condition assessed as decrease in fresh weight at 0.05 kg ae/ha measured 21 days post treatment relative to untreated control; format: functional
Erigeron canadensis [21] = experiment: Herbicidal activity against compound-resistant Conyza canadensis (horseweed) isolate 2 under greenhouse condition assessed as fresh weight at 3.36 kg ae/ha measured 21 days post treatment relative to untreated control
Erigeron canadensis [22] = experiment: Herbicidal activity against compound-resistant Conyza canadensis (horseweed) isolate 1 under greenhouse condition at 0.84 kg ae/ha measured 14 days post treatment relative to control; format: functional
Erigeron canadensis [23] = experiment: Herbicidal activity against compound-sensitive Conyza canadensis (horseweed) under greenhouse condition at 1.68 kg ae/ha measured 21 days post treatment relative to control; format: functional
Erigeron canadensis [24] = experiment: Herbicidal activity against compound-resistant Conyza canadensis (horseweed) isolate 2 under greenhouse condition assessed as fresh weight at 2.52 kg ae/ha measured 21 days post treatment relative to untreated control
Erigeron canadensis [25] = experiment: Herbicidal activity against compound-resistant Conyza canadensis (horseweed) isolate 1 under greenhouse condition assessed as fresh weight at 9 kg ae/ha measured 21 days post treatment relative to untreated control
Erigeron canadensis [26] = experiment: Herbicidal activity against compound-sensitive Conyza canadensis (horseweed) under greenhouse condition at 0.45 kg ae/ha measured 21 days post treatment relative to control; format: functional
Erigeron canadensis [27] = experiment: Herbicidal activity against compound-resistant Conyza canadensis (horseweed) isolate 2 under greenhouse condition at 0.45 kg ae/ha measured 14 days post treatment relative to control; format: functional
Erigeron canadensis [28] = experiment: Herbicidal activity against compound-resistant Conyza canadensis (horseweed) isolate 1 under greenhouse condition at 0.45 kg ae/ha measured 7 days post treatment relative to control; format: functional
Erigeron canadensis [29] = experiment: Herbicidal activity against compound-sensitive Conyza canadensis (horseweed) under greenhouse condition at 3.36 kg ae/ha measured 7 days post treatment relative to control; format: functional
Erigeron canadensis [30] = experiment: Herbicidal activity against compound-sensitive Conyza canadensis (horseweed) under greenhouse condition assessed as fresh weight at 1.25 kg ae/ha measured 21 days post treatment relative to untreated control
Erigeron canadensis [31] = experiment: Herbicidal activity against compound-resistant Conyza canadensis (horseweed) isolate 2 under greenhouse condition at 3.36 kg ae/ha measured 21 days post treatment relative to control; format: functional
Erigeron canadensis [32] = experiment: Herbicidal activity against compound-sensitive Conyza canadensis (horseweed) under greenhouse condition assessed as fresh weight at 1.68 kg ae/ha measured 21 days post treatment relative to untreated control
Erigeron canadensis [33] = experiment: Herbicidal activity against compound-sensitive Conyza canadensis (horseweed) under greenhouse condition assessed as fresh weight at 2.52 kg ae/ha measured 21 days post treatment relative to untreated control
Erigeron canadensis [34] = experiment: Herbicidal activity against compound-resistant Conyza canadensis (horseweed) isolate 1 under greenhouse condition at 0.45 kg ae/ha measured 14 days post treatment relative to control; format: functional
Erigeron canadensis [35] = experiment: Herbicidal activity against compound-resistant Conyza canadensis (horseweed) isolate 1 under greenhouse condition at 9 kg ae/ha measured 14 days post treatment relative to control; format: functional
Erigeron canadensis [36] = experiment: Herbicidal activity against compound-resistant Conyza canadensis (horseweed) isolate 2 under greenhouse condition assessed as fresh weight at 1.25 kg ae/ha measured 21 days post treatment relative to untreated control

## O=C(O)CNCP(=O)(O)O [GLYPHOSATE]
Erigeron canadensis [1]
  level, % of control: 30%
Erigeron canadensis [2]
  Activity: 26%
Erigeron canadensis [3]
  Activity: 45%
Erigeron canadensis [4]
  Activity: 63%
Erigeron canadensis [5]
  Activity: 99%
Erigeron canadensis [6]
  Activity: 25%
Erigeron canadensis [7]
  Activity: 91%
Erigeron canadensis [8]
  Activity: 44%
Erigeron canadensis [9]
  Activity: 60%
Erigeron canadensis [10]
  level, % of control: 27%
Erigeron canadensis [11]
  level, % of control: 1%
Erigeron canadensis [12]
  Activity: 13%
Erigeron canadensis [13]
  Activity: 30%
Erigeron canadensis [14]
  Activity: 20%
Erigeron canadensis [15]
  Activity: 92%
Erigeron canadensis [16]
  Activity: 63%
Erigeron canadensis [17]
  Activity: 18%
Erigeron canadensis [18]
  Activity: 90%
Erigeron canadensis [19]
  Activity: 88%
Erigeron canadensis [20]
  Activity: 4 g
Erigeron canadensis [21]
  level, % of control: 18%
Erigeron canadensis [22]
  Activity: 13%
Erigeron canadensis [23]
  Activity: 99%
Erigeron canadensis [24]
  level, % of control: 24%
Erigeron canadensis [25]
  level, % of control: 9%
Erigeron canadensis [26]
  Activity: 74%
Erigeron canadensis [27]
  Activity: 13%
Erigeron canadensis [28]
  Activity: 10%
Erigeron canadensis [29]
  Activity: 85%
Erigeron canadensis [30]
  level, % of control: 19%
Erigeron canadensis [31]
  Activity: 75%
Erigeron canadensis [32]
  level, % of control: 1%
Erigeron canadensis [33]
  level, % of control: 2%
Erigeron canadensis [34]
  Activity: 8%
Erigeron canadensis [35]
  Activity: 80%
Erigeron canadensis [36]
  level, % of control: 73%
